This passage reports IC50 results from ChEMBL document CHEMBL1139932, “Structure-based organic synthesis of unnatural aeruginosin hybrids as potent inhibitors of thrombin” (Bioorg Med Chem Lett, 2007).

The target in this experiment is Prothrombin (Homo sapiens, UniProt P00734). Briefly: Inhibition of thrombin.
Broadly, the IC50 is the concentration at which inhibition is half-maximal. The low end stands for inhibition by little substance, the high end for a need for much substance. As to `CC[C@H](C)[C@@H](N)C(=O)N1[C@H](C(=O)NCc2ccc(C(=N)N)cc2)C[C@@H]2CCCC[C@@H]21`, the IC50 worked out at 101 nM.

Compound `CC(C)C[C@@H](NC(=O)[C@H](O)Cc1ccccc1)C(=O)N1[C@H](C(=O)NCCC2=CCN(C(=N)N)C2)C[C@@H]2CC[C@@H](O)C[C@@H]21` came in with an IC50 of 220 nM.

`N=C(N)c1ccc(CNC(=O)[C@@H]2C[C@@H]3CCCC[C@@H]3N2C(=O)C(NC(=O)[C@H](O)Cc2ccccc2)C2CCCCC2)cc1` (stereo partly specified) registered an IC50 of 3.4 nM. Compared with the last compound, the IC50 is about 65-fold lower.

In the case of `CC(C)C[C@@H](NC(=O)[C@H](O)Cc1ccccc1)C(=O)N1[C@H](C(=O)NCCCCN=C(N)N)C[C@@H]2CC[C@@H](O)C[C@@H]21`, the 50% inhibitory concentration (IC50) worked out at 5600 nM.

With `CC[C@H](C)[C@@H](NC(=O)[C@H](O)Cc1ccccc1)C(=O)N1[C@H](C(=O)NCc2ccc(C(=N)N)cc2)C[C@@H]2CCCC[C@@H]21`, the half-inhibitory concentration (IC50) came out at 3.3 nM.

`CC[C@H](C)C(NC(=O)[C@@H](C)O)C(=O)N1[C@H](C(=O)NCc2ccc(C(=N)N)cc2)C[C@@H]2CCCC[C@@H]21` (single isomer, unassigned): the IC50 came out at 53 nM.

The compound `CC[C@@H](C)[C@@H](NC(=O)[C@H](O)Cc1ccccc1)C(=O)N1CCC[C@H]1C(=O)NCc1ccc(C(=N)N)cc1` showed a concentration for half-maximal inhibition (IC50) of 7 nM.

Compound `CC(C)C[C@@H](NC(=O)[C@H](O)Cc1ccccc1)C(=O)N1[C@H](C(=O)NCCCCN=C(N)N)C[C@@H]2CCCC[C@@H]21` registered a concentration for half-maximal inhibition (IC50) of 1500 nM.

Turning to `CO[C@H](CO)C(=O)N[C@@H](C(=O)N1[C@H](C(=O)NCCC2=CCN(C(=N)N)C2)C[C@@H]2C[C@H](O)[C@@H](O)C[C@@H]21)[C@@H](Cl)C(C)C`, the IC50 was 11 nM.

Take `CC[C@H](C)C(NC(=O)OC(C)(C)C)C(=O)N1[C@H](C(=O)NCc2ccc(C(=N)N)cc2)C[C@@H]2CCCC[C@@H]21` (single isomer, unassigned): the IC50 is 171 nM.

Compound `CC[C@H](C)[C@@H](NC(=O)CCc1ccccc1)C(=O)N1[C@H](C(=O)NCc2ccc(C(=N)N)cc2)C[C@@H]2CCCC[C@@H]21` returned a half-inhibitory concentration (IC50) of 334 nM. Against the preceding compound, the IC50 is about 2-fold higher.

As to `CC(C)[C@H](Cl)[C@@H](NC(=O)[C@H](O)Cc1ccccc1)C(=O)N1[C@H](C(=O)NCc2ccc(C(=N)N)cc2)C[C@@H]2CCCC[C@@H]21`, it took 1.6 nM to reach half-maximal inhibition (IC50).

`CC(C)C[C@@H](NC(=O)[C@H](O)Cc1ccccc1)C(=O)N1[C@H](C(=O)NCCC2=CCN(C(=N)N)C2)C[C@@H]2CCCC[C@@H]21`: the IC50 is 120 nM.

For `CC(C)[C@H](Cl)[C@@H](NC(=O)[C@H](O)Cc1ccccc1)C(=O)N1[C@H](C(=O)NCCCCN=C(N)N)C[C@@H]2CC[C@@H](O)C[C@@H]21`, the midpoint of inhibition, the IC50, lay at 310 nM.

`CC[C@H](C)[C@@H](NC(C)=O)C(=O)N1[C@H](C(=O)NCc2ccc(C(=N)N)cc2)C[C@@H]2CCCC[C@@H]21`: the concentration for half-maximal inhibition (IC50) was 786 nM.

Take `CC(C)C[C@@H](NC(=O)[C@H](O)Cc1ccccc1)C(=O)N1[C@H](C(=O)NCc2ccc(C(=N)N)cc2)C[C@@H]2CCCC[C@@H]21`: the IC50 turned out to be 97 nM. Compared with the last compound, the IC50 is about 8.1-fold lower.
